Columns and labels:
[1] = physchem; type: physicochemical
Protocol: The synthesized lipids were tested in term of in vitro transfection efficacy and toxicity on HeLa cells. In order to perform the mentioned biological tests, appropriate LNPs had to be formulated from the synthesized lipids. The formulation technique was different in Method A and B. The particle size, PDI and zeta potential of resulting LNPs were determined by means of Dynamic Light Scattering technique (DLS). Prior to biological testing the encapsulation efficiency (EE) of the loaded LNPs was determined by using RiboGreen RNA assay. In case of Method A Luciferase-mRNA while in case of Method B GFP-mRNA was transfected into the cells. In parallel with the transfection experiments, toxicity of the investigated LNPs was determined, in case of Method A resazurin assay while in case of Method B MTT assay was used. In the case of some lipids, the apparent pKa in LNPs was determined by using TNS titration based on the method described: Angew Chem Int Ed Engl. 2012, 51 (34), 8529-8533, doi: 10.1002/anie.201203263).

[2] = Encapsulation efficiency, RiboGreen RNA assay (Method A); type: physicochemical; conditions: LNP formulated by Method A
Method in brief: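 mRNA-LNPs (Method A formulation) diluted in TE buffer pH 7.4/7.5 and measured in duplicate with and without Triton lysis (37° C., 10 min). RiboGreen fluorescence read at ex 480/em 525. mRNA quantified against a standard curve.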

[3] = test system: HeLa cells; assay: Transfection efficiency with Luciferase-mRNA, Nano-Glo assay (Method A); type: cell-based; conditions: 100 ng Luciferase (SecNLuc) mRNA, 24 h, luminescence
Method in brief: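 Luminescence of secreted NanoLuc in culture medium, read ~3 min after Nano-Glo reagent, reports transfection. HeLa cells grown to ~80% confluence got 100/50/10 ng mRNA per well as LNPs for 24 h, with a parallel resazurin toxicity readout.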

CCCCCCCCCCCOC(=O)CCCCCN(CCO)CCCCCCCCCC(OCCCCCCCC)O[Si](C)(C)CCCCCC (centres unmarked) [Example 210, undecyl 6-((10-((hexyldimethylsilyl)oxy)-10-(octyloxy)decyl)(2-hydroxyethyl)amino)hexanoate]
pKa [1]: 6.4 | EE (%) [2]: 99% | Transfection* (Method A = 100 ng mRNA) [3]: 1936082

CCCCCCCCCCCOC(=O)CCCCCN(CCO)CCCCCCCCCOC(CCCCCCC)O[Si](C)(C)CCCCCC (centres unmarked) [Example 209, undecyl 9-heptyl-20-(2-hydroxyethyl)-7,7-dimethyl-8,10-dioxa-20-aza-7-silahexacosan-26-oate]
pKa [1]: 6.61 | EE (%) [2]: 97% | Transfection* (Method A = 100 ng mRNA) [3]: 2049133

CCCCCCCCCCSC(CCCC)C(=O)OCCCCCCN(CCCCO)CCCCCCOC(CCCCCCC)O[Si](C)(C)CCCCCCCC (centres unmarked) [Example 167, 15-heptyl-7-(4-hydroxybutyl)-17,17-dimethyl-14,16-dioxa-7-aza-17-silapentacosyl 2-(decylthio)hexanoate]
pKa [1]: 6.42 | EE (%) [2]: 98% | Transfection* (Method A = 100 ng mRNA) [3]: 3110369

CCCCCCCCOC(CCCCCN(CCCCO)CCCCCCOC(=O)C(CCCCCC)CCCCCCCC)O[Si](C)(C)OCC(CCCCCC)CCCCCCCC (centres unmarked) [Example 136, 18-hexyl-7-(4-hydroxybutyl)-15,15-dimethyl-13-(octyloxy)-14,16-dioxa-7-aza-15-silahexacosyl 2-hexyldecanoate]
EE (%) [2]: 90% | Transfection* (Method A = 100 ng mRNA) [3]: 61666

CCCCCCCCOC(CCCCCCC)O[Si](C)(C)OCCCCCCN(CCCCO)CCCCCCOC(=O)C(CCCCCCCC)SCCCCC (centres unmarked) [Example 188, 17-heptyl-7-(4-hydroxybutyl)-15,15-dimethyl-14,16,18-trioxa-7-aza-15-silahexacosyl 2-(pentylthio)decanoate]
pKa [1]: 6.34 | EE (%) [2]: 98% | Transfection* (Method A = 100 ng mRNA) [3]: 11210992

CCCCCCCC[Si](C)(C)OC(CCCCCCC)OCCCCCCN(CCCCO)CCC[C@@H](C)C1CCC2C3CCC4C[C@H](OC)CC[C@]4(C)C3CC[C@@]21C (stereo partly drawn) [Example 215, 13-heptyl-5-((4R)-4-((3R,10S,13R)-3-methoxy-10,13-dimethylhexadecahydro-1H-cyclopenta[a]phenanthren-17-yl)pentyl)-15,15-dimethyl-12,14-dioxa-5-aza-15-silatricosan-1-ol]
EE (%) [2]: 94% | Transfection* (Method A = 100 ng mRNA) [3]: 522805

CCCCCCCCOC(CCCCCN(CCCCO)CCC[C@@H](C)C1CCC2C3CCC4C[C@H](OC)CC[C@]4(C)C3CC[C@@]21C)O[Si](C)(C)O[Si](C)(C)OCCCCCCCC (stereo partly drawn) [Example 220, 4-(((4R)-4-((3R,10S,13R)-3-methoxy-10,13-dimethylhexadecahydro-1H-cyclopenta[a]phenanthren-17-yl)pentyl)(6-(octyloxy)-6-((1,1,3,3-tetramethyl-3-(octyloxy)disiloxaneyl)oxy)hexyl)amino)butan-1-ol]
EE (%) [2]: 98% | Transfection* (Method A = 100 ng mRNA) [3]: 367060

CCCCCCCCOC(CCCCCN(CCCCO)CCCCCCOC(=O)C(CCCCCCCC)SCCCCC)O[Si](C)(C)OCC(CCCCCC)CCCCCCCC (centres unmarked) [Example 185, 18-hexyl-7-(4-hydroxybutyl)-15,15-dimethyl-13-(octyloxy)-14,16-dioxa-7-aza-15-silahexacosyl 2-(pentylthio)decanoate]
EE (%) [2]: 97% | Transfection* (Method A = 100 ng mRNA) [3]: 1019830

CCCCCCCCCCSC(CCCC)C(=O)OCCCCCCN(CCCCO)CCCCCC(OCCCCCCCC)O[Si](C)(C)OCC(CCCCCC)CCCCCCCC (centres unmarked) [Example 174, 18-hexyl-7-(4-hydroxybutyl)-15,15-dimethyl-13-(octyloxy)-14,16-dioxa-7-aza-15-silahexacosyl 2-(decylthio)hexanoate]
EE (%) [2]: 96% | Transfection* (Method A = 100 ng mRNA) [3]: 2292920

CCCCCCCCOC(CCCCCN(CCCCO)CCC[C@@H](C)C1CCC2C3CCC4C[C@H](OC)CC[C@]4(C)C3CC[C@@]21C)O[Si](C)(C)OCCCCCCCC (stereo partly drawn) [Example 216, 5-((4R)-4-((3R,10S,13R)-3-methoxy-10,13-dimethylhexadecahydro-1H-cyclopenta[a]phenanthren-17-yl)pentyl)-13,13-dimethyl-11-(octyloxy)-12,14-dioxa-5-aza-13-siladocosan-1-ol]
EE (%) [2]: 91% | Transfection* (Method A = 100 ng mRNA) [3]: 817325

CCCCCCCCCCSC(CCCC)C(=O)OCCCCCCN(CCCCO)CCCCCCO[Si](C)(C)OC(CCCCCCC)OCCCCCCCC (centres unmarked) [Example 176, 17-heptyl-7-(4-hydroxybutyl)-15,15-dimethyl-14,16,18-trioxa-7-aza-15-silahexacosyl 2-(decylthio)hexanoate]
pKa [1]: 6.48 | EE (%) [2]: 95% | Transfection* (Method A = 100 ng mRNA) [3]: 12359273

CCCCCCCCOC(CCCCCN(CCO)CCCCCCCC(=O)OC(CCCCCCCC)CCCCCCCC)O[Si](C)(C)O[Si](C)(C)OCCCCCCCC (centres unmarked) [Example 192, heptadecan-9-yl 8-((2-hydroxyethyl)(6-(octyloxy)-6-((1,1,3,3-tetramethyl-3-(octyloxy)disiloxaneyl)oxy)hexyl)amino)octanoate]
EE (%) [2]: 97% | Transfection* (Method A = 100 ng mRNA) [3]: 11507

Source: patent US20260008793A1, “IONIZABLE CATIONIC LIPIDS INCORPORATING SILICON” (ALDEXCHEM KFT., priority 2022, published 2026)
